Legend:
Assay type in all cases: in vivo, rat
[1] = system: Wistar female rats; assay: Dose dependence of plasma parameters after 10 days of daily oral gavage in normal Wistar female rats; details: for plasma 3-hydroxybutyrate / plasma glucose / plasma insulin / plasma non-esterified fatty acids / plasma total cholesterol / plasma triacylglycerols: female Wistar rats, 10 days
Protocol: Eight groups of 6 normal Wistar female rats each were used. The animals were kept under standard housing conditions and had free access to pellet food and tap water. All the rats received a daily oral gavage of 0.2 ml of sunflower oil through a stomach tube. This oil contained different amounts of oleoyl-estrone so that the rats received daily doses of 0, 0.2, 0.5, 1, 2, 5, 10 or 20 micromols per kg of body weight. After 10 days of daily gavages, the rats were killed and their blood extracted and used to obtain plasma through centrifugation. Plasma samples were used for the analysis of glucose, total cholesterol and triacylglycerols by means of a dry-strip procedure (Spotchem, Menarini, Firenze, Italy), the levels of 3-hydroxybutyrate were measured with the kit 907979 from Boehringer Mannheim (Mannheim, Germany), and non-esterified fatty acids with the kit 1383175 from the same company. Insulin levels were measured through radioimmunoassay (rat insulin kit, Amersham, Amersham, United Kingdom).

[2] = system: normal-weight adult female Zucker rats (genotype Fa/?); assay: Plasma lipoproteinogram (polyacrylamide gel electrophoresis), normal-weight rats; details: 10 micromols per kg daily, 10 days
Protocol: FIG. 1 is a lipoproteinogram of plasma from normal-weight rats (Zucker Fa/?), showing the effect of oleoyl-estrone on lipoprotein distribution. I=intact; C=control; T=treated with oleoyl-estrone; HDL=high-density lipoproteins; LDL=low-density lipoproteins; VLDL=very low-density lipoproteins.
Since treatment with oleoyl-estrone deeply modifies the plasma lipids of rats, an experiment was carried out to determine whether the oral administration of oleoyl-estrone modifies the plasma lipidogram of lean and genetically obese rats. Two groups of animals were used: (1) normal-weight adult female Zucker rats (genotype Fa/?), and (2) genetically obese adult female Zucker rats (genotype fa/fa). In the first group one rat was killed to obtain a sample of blood (intact control); in the second group (obese rats), two intact controls were killed and their blood recovered. […] All blood samples were centrifuged to obtain plasma; plasma proteins were analysed by means of polyacrylamide gel electroforesis (kit Lipofilm, Sebia, Issy les Molineaux, France), lipids were stained with Sudan black.

[3] = system: obese rats; assay: Lipoprotein separation by ultracentrifugation and lipid composition analysis, obese rats; details: 10 μmol/kg daily, vs controls
From the text: FIG. 4 is analogous to FIG. 3, but for obese rats.
Lipoproteins in fresh plasma were fractionated by differential ultracentrifugation in known density media obtained through the addition of KBr. […] These fractions were used for the analysis of protein and lipidic components, and for the estimation of particle size.
Whole plasma, lipoprotein fractions and LPdp were used for the analysis of protein and lipid content. Total protein was estimated with the Bradford method (cf. M. M. Bradford, Anal. Biochem. 1976, vol. 72, pp. 248-254). Total cholesterol was measured in saline with a high-performance cholesterol kit. Triacylglycerol concentrations were measured with a commercial kit and the results were corrected for free glycerol. Phospholipid was quantified by a choline-based method. […] Recoveries for all plasma components (i.e. deviations from the values in whole plasma and those derived from the sum of its content in lipoprotein fractions) were lowest for triacylglycerols (88±3%) and highest for protein (92±3%). Sudan black-prestained serum samples were sepparated by polyacrylamide gel electrophoresis. Separation of lipoprotein classes through centrifugation allowed a detailed analysis of lipoprotein composition as shown in FIGS. 3 and 4.

[4] = Wistar female rats, doses 0.2-20 micromols per kg, ANOVA P<0.05

CCCCCCCC/C=C\CCCCCCCC(=O)Oc1ccc2c(c1)CC[C@@H]1[C@@H]2CC[C@]2(C)C(=O)CC[C@@H]12 [oleoyl-estrone]
doses giving lower insulin values than controls ([1]; Wistar female rats, 10 days oral gavage): ≥ 1 micromol/kg and day
change in circulating levels of 3-hydroxybutyrate [1, 4]: no globally significant changes
change in circulating levels of glucose [1, 4]: no globally significant changes
change in circulating levels of non-esterified fatty acids [1, 4]: no globally significant changes
change in circulating levels of triacylglycerols [1, 4]: no globally significant changes
drop in insulin levels ([1]; Wistar female rats, vs controls): significant
plasma 3-hydroxybutyrate ([1]; daily gavage 0.2 μmol/kg · d): 291 ± 40 µM
plasma glucose ([1]; daily gavage 0.2 μmol/kg · d): 6.35 ± 0.47 mM
plasma insulin ([1]; daily gavage 0.2 μmol/kg · d): 0.624 nM
plasma non-esterified fatty acids ([1]; daily gavage 0.2 μmol/kg · d): 184 ± 31 µM
plasma total cholesterol ([1]; daily gavage 0.2 μmol/kg · d): 1.21 ± 0.12 mM
plasma triacylglycerols ([1]; daily gavage 0.2 μmol/kg · d): 1.57 ± 0.43 mM
plasma 3-hydroxybutyrate ([1]; daily gavage 0.5 μmol/kg · d): 189 ± 41 µM
plasma glucose ([1]; daily gavage 0.5 μmol/kg · d): 5.74 ± 0.31 mM
plasma insulin ([1]; daily gavage 0.5 μmol/kg · d): 0.497 ± 0.067 nM
plasma non-esterified fatty acids ([1]; daily gavage 0.5 μmol/kg · d): 273 ± 47 µM
plasma total cholesterol ([1]; daily gavage 0.5 μmol/kg · d): 1.02 ± 0.08 mM
plasma triacylglycerols ([1]; daily gavage 0.5 μmol/kg · d): 1.79 ± 0.23 mM
plasma 3-hydroxybutyrate ([1]; daily gavage 1 μmol/kg · d): 305 ± 56 µM
plasma glucose ([1]; daily gavage 1 μmol/kg · d): 5.71 ± 0.46 mM
plasma insulin ([1]; daily gavage 1 μmol/kg · d): 0.241 ± 0.044 nM
plasma non-esterified fatty acids ([1]; daily gavage 1 μmol/kg · d): 147 ± 30 µM
plasma total cholesterol ([1]; daily gavage 1 μmol/kg · d): 1.13 ± 0.15 mM
plasma triacylglycerols ([1]; daily gavage 1 μmol/kg · d): 1.26 ± 0.26 mM
plasma 3-hydroxybutyrate ([1]; daily gavage 2 μmol/kg · d): 263 ± 27 µM
plasma glucose ([1]; daily gavage 2 μmol/kg · d): 5.76 ± 0.20 mM
plasma insulin ([1]; daily gavage 2 μmol/kg · d): 0.280 ± 0.036 nM
plasma non-esterified fatty acids ([1]; daily gavage 2 μmol/kg · d): 281 ± 44 µM
plasma total cholesterol ([1]; daily gavage 2 μmol/kg · d): 1.01 ± 0.27 mM
plasma triacylglycerols ([1]; daily gavage 2 μmol/kg · d): 1.70 ± 0.11 mM
plasma 3-hydroxybutyrate ([1]; daily gavage 5 μmol/kg · d): 300 ± 64 µM
plasma glucose ([1]; daily gavage 5 μmol/kg · d): 5.64 ± 0.21 mM
plasma insulin ([1]; daily gavage 5 μmol/kg · d): 0.275 ± 0.053 nM
plasma non-esterified fatty acids ([1]; daily gavage 5 μmol/kg · d): 213 ± 48 µM
plasma total cholesterol ([1]; daily gavage 5 μmol/kg · d): 1.03 ± 0.13 mM
plasma triacylglycerols ([1]; daily gavage 5 μmol/kg · d): 1.91 ± 0.33 mM
plasma 3-hydroxybutyrate ([1]; daily gavage 10 μmol/kg · d): 301 ± 42 µM
plasma glucose ([1]; daily gavage 10 μmol/kg · d): 5.90 ± 0.31 mM
plasma insulin ([1]; daily gavage 10 μmol/kg · d): 0.262 ± 0.050 nM
plasma non-esterified fatty acids ([1]; daily gavage 10 μmol/kg · d): 152 ± 24 µM
plasma total cholesterol ([1]; daily gavage 10 μmol/kg · d): 0.66 ± 0.09 mM
plasma triacylglycerols ([1]; daily gavage 10 μmol/kg · d): 1.39 ± 0.14 mM
plasma 3-hydroxybutyrate ([1]; daily gavage 20 μmol/kg · d): 237 ± 47 µM
plasma glucose ([1]; daily gavage 20 μmol/kg · d): 5.62 ± 0.20 mM
plasma insulin ([1]; daily gavage 20 μmol/kg · d): 0.223 ± 0.041 nM
plasma non-esterified fatty acids ([1]; daily gavage 20 μmol/kg · d): 122 ± 39 µM
plasma total cholesterol ([1]; daily gavage 20 μmol/kg · d): 0.53 ± 0.05 mM
plasma triacylglycerols ([1]; daily gavage 20 μmol/kg · d): 0.92 ± 0.11 mM
change of VLDLs in lipoproteinogram [2]: marked increase
change of high density lipoproteins in lipoproteinogram [2]: marked reduction
change of HDL components [3]: all components decreased again with treatment, except for triacylglycerols
change of LDL components [3]: only tricylglycerol levels decreased
change of chylomicra and VLDL components [3]: marked decreases
change of total phospholipid levels in lipoprotein-depleted plasma [3]: decrease
levels of all lipid classes in whole plasma [3]: markedly lower levels
